# Reference: PMC6359037, “Effects of Piperazine Derivative on Paclitaxel Pharmacokinetics” (Pharmaceutics, 2019)
# Where two headings read alike, the source gives them in different places.
# Assays:
# MCF-7/ADR cells [1] = assay: Cytotoxicity (toxic effect) of each piperazine derivative alone, SRB assay; assay type: cell-based, human; details: 2 h incubation
# Procedure: The MDR human breast cancer cell line MCF-7/ADR was maintained in RPMI 1640, supplemented with 2 mM L-glutamine, 10 mM HEPES, 24 mM NaHCO3, 10% fetal bovine serum, and 1% antibiotic-antimycotic agent at 37 °C in a humidified 5% CO2 atmosphere.
# (§1) The cytotoxicity of each piperazine derivative was examined in the cells using the sulforhodamine B (SRB) assay. The changes in IC50 values of DNM, P-gp substrate anticancer drug were estimated in the presence of piperazine derivatives at a concentration of 100 μM. The details of the cytotoxicity assay were described in our previous report. […] The IC50 values were calculated with the Table Curve Windows program. The assay was performed in triplicate.
# human P-gp membrane = human P-gp membrane (Homo sapiens, UniProt P08183); assay: P-glycoprotein ATPase activity assay; details: 100 μM
# human P-gp membrane, sequence (P08183 whole entry): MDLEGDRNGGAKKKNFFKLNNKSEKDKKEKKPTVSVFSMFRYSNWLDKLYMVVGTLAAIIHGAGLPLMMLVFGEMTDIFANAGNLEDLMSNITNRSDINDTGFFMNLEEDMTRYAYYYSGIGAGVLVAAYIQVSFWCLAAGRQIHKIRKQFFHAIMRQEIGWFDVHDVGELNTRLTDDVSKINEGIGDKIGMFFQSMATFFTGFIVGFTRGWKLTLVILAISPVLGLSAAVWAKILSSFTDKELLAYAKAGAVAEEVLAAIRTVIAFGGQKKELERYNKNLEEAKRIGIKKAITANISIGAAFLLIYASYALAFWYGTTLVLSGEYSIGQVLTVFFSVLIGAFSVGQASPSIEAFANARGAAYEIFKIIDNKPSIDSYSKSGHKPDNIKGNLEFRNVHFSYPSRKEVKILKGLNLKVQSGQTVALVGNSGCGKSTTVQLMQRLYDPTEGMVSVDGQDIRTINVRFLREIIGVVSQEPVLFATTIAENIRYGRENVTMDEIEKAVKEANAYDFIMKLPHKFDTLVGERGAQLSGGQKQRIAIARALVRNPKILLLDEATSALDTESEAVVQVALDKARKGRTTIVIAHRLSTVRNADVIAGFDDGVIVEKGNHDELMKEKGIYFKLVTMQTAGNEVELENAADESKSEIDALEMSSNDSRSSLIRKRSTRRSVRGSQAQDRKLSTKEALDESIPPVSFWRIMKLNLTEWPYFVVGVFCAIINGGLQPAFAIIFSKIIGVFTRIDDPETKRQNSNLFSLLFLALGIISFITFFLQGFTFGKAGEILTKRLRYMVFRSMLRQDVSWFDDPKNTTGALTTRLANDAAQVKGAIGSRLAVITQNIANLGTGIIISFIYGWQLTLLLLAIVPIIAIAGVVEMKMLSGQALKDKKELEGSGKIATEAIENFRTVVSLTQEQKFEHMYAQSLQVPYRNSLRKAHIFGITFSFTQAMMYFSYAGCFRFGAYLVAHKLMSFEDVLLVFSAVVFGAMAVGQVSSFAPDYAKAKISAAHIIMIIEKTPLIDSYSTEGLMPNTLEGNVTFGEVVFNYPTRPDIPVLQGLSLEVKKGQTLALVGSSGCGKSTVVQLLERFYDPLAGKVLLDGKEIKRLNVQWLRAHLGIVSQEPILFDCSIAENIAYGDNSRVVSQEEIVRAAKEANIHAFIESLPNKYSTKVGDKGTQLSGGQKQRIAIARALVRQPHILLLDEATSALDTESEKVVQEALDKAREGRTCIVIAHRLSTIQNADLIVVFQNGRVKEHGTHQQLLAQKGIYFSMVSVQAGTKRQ
# Text: The rate of phosphate release per mg membrane protein represented the ATPase activity by converting to the relative ratio versus control value.
# MCF-7/ADR cells [2] = assay: Cytotoxicity assay (SRB): change of DNM IC50 in the presence of piperazine derivatives; assay type: cell-based; details: Homo sapiens, NCI/ADR-RES, DNM alone (negative control)
# Procedure: as §1, with “The changes in IC50 values of DNM, P-gp substrate anticancer drug were estimated in the presence of piperazine derivatives at a concentration of 100 μM.” left out
# P-gp = molecular target: T1, P-gp (Homo sapiens, UniProt P08183); assay: [3H]-DNM efflux study in P-gp overexpressing cells; assay type: cell-based; details: control: tritium-labeled DNM alone, 1 h, MCF-7/ADR cells
# T1 construct: uptake (A) and efflux (B) of [^3H]-DNM in MCF-7/ADR cells; endogenous in cells; host or cells: MCF-7/ADR
# T1 sequence (P08183 whole entry): as above
# Procedure: Tritium-labeled P-gp substrate uptake and efflux studies were performed using the modified Harker and Sikic method. […] For the efflux study, cells were incubated with 0.05 μM tritium-labeled DNM for 1 h and subsequently in the absence or presence of 100 μM of pre-selected derivatives for another 1 h after removing 0.05 μM of the tritium-labeled DNM. The uptake and efflux values based on the radioactivity estimated by Liquid Scintillation Counting were normalized to those of 1 × 10^6 cells. The detailed procedures have been reported previously.
# [3] = PTX pharmacokinetics in rats, alone or orally co-administered with compound 4; assay type: in vivo, Sprague-Dawley rats; details: for AUC(0-inf): read-out: AUCinf of PTX; for k el: read-out: ke of PTX (converted); for half-life: read-out: t1/2 of PTX (converted)
# Procedure: All the animal experiments were performed using six-week-old male Sprague-Dawley rats (200–235 g) under the procedures granted by the Ewha Womans University Institutional Animal Care and Use Committee (IACUC) (No. 2012-01-019), Korea.
# PTX at 2 mg/mL was prepared immediately prior to use with a commercial formulation of Taxol® (Cremophor® EL, anhydrous ethanol and isotonic saline (1:1:4, v/v/v)). Compound 4 (N-(4-(4-bromophenyl)thiazol-2-yl)-2-(N-(2-(4-((4-chlorophenyl)(phenyl)methyl)piperazin-1-yl)-2-oxoethyl)acetamido)acetamide) was prepared using a process similar to PTX formulation for oral administration.
# For intravenous injection of 2 mg/kg of PTX (IV) and oral administration of 25 mg/kg of PTX (PO) with 0, 2, or 5 mg/kg of compound 4, the rats were divided into 4 groups on the day. The common carotid artery was catheterized for blood sampling. Blood sampling was conducted at 0, 0.033, 0.083, 0.25, 0.5, 1, 2, 3, 4, 6, 10, and 24 h for the IV group and 0, 0.25, 0.5, 1, 2, 3, 4, 6, 8, 10, and 24 h for PO groups.
# Prepared plasma samples mixed with internal standard (4-hydroxybenzoic acid n-hexyl ester) were analyzed by the HPLC system.
# WinNonlin® Professional version 5.2 software (Pharsight Corporation, Mountain View, CA, USA) was used to estimate the PK parameters following intravenous or oral PTX administrations to the rats. Non-compartmental analysis was performed using the plasma PTX concentration–time profiles to obtain the following PK parameters: Area under the plasma concentration–time curve from zero time to infinity (AUCinf), elimination half-life (t1/2), apparent volume of distribution after oral administration (Vz/F), and oral clearance (Cl/F). The maximum plasma concentration (Cmax) and the time required to reach Cmax (Tmax) were directly measured from the plasma PTX concentration–time curve. The absolute BA and relative BA (AB and RB, respectively) of PTX were calculated using the respective formulas below:AB (%) = AUC po/AUC iv × IV dose/PO dose × 100 RB (%) = AUC po co–administration/AUC po control × 100
# [4] = set-up: method as in doi:10.1016/S0378-5173(98)00188-4; details: cited from earlier work
# P-glycoprotein (P-gp) = tested on: P-glycoprotein (P-gp); set-up: method as in PMID 12608532; details: cited from earlier work
# MES-SA/Dx5 = tested on: MES-SA/Dx5; set-up: method as in PMID 19275716; details: xenograft mice with MES-SA/Dx5 (P-gp overexpressed) vs parental cells; cited from earlier work
# [5] = PTX 25 mg/kg PO alone (oral control)
# [6] = male, Sprague-Dawley, rat, plasma, PTX 2 mg/kg IV (IV control)
# [7] = male, Sprague-Dawley, rat, plasma, PTX 25 mg/kg PO alone (oral control)
SMILES,cell survival ratio (MCF-7/ADR cells [1]; 5 μM),cell survival ratio (MCF-7/ADR cells [1]; 10 μM),cell survival ratio (MCF-7/ADR cells [1]; 25 μM),cell survival ratio (MCF-7/ADR cells [1]; 50 μM),cell survival ratio (MCF-7/ADR cells [1]; 100 μM),also measured
O=C(CN(CC(=O)N1CCN(C(c2ccccc2)c2ccc(Cl)cc2)CC1)C(=O)c1ccc2ccccc2c1)NCc1ccccc1 (stereo not shown) [Compound 1],89.77,90.47,89.23,88.56,87.21,
O=C(CN(CC(=O)N1CCN(C(c2ccccc2)c2ccc(Cl)cc2)CC1)C(=O)Cc1ccccc1)Nc1nc(-c2ccc(Cl)cc2)cs1 (stereo not shown) [Compound 2],102.70,102.87,86.94,86.10,87.75,"P-gp ATPase activity compared to the control (human P-gp membrane): 1.3 fold; P-gp ATPase activity, ratio of the control (blank) (human P-gp membrane): 1.29"
O=C(CN(CC(=O)N1CCN(C(c2ccccc2)c2ccc(Cl)cc2)CC1)C(=O)c1ccc2ccccc2c1)Nc1nc(-c2ccc(Cl)cc2)cs1 (stereo not shown) [Compound 3],102.03,101.69,102.24,86.26,85.90,
"CC(=O)N(CC(=O)Nc1nc(-c2ccc(Br)cc2)cs1)CC(=O)N1CCN(C(c2ccccc2)c2ccc(Cl)cc2)CC1 (stereo not shown) [Compound 4, N-(4-(4-bromophenyl)thiazol-2-yl)-2-(N-(2-(4-((4-chlorophenyl)(phenyl)methyl)piperazin-1-yl)-2-oxoethyl)acetamido)acetamide]",100.76,98.50,96.14,96.90,87.63,"P-gp ATPase activity compared to the control (human P-gp membrane): 1.2 fold; P-gp ATPase activity, ratio of the control (blank) (human P-gp membrane): 1.18"
COc1ccc(CNC(=O)CN(CC(=O)N2CCN(C(c3ccccc3)c3ccc(Cl)cc3)CC2)C(=O)c2ccccc2)cc1 (stereo not shown) [Compound 5],101.71,87.22,83.46,83.84,81.94,
CC(C)(C)c1cc(NC(=O)CN(CC(=O)N2CCN(C(c3ccccc3)c3ccc(Cl)cc3)CC2)C(=O)c2ccccc2)no1 (stereo not shown) [Compound 6],100.72,101.38,100.76,85.68,82.91,
"COc1cccc2c1C(=O)c1c(O)c3c(c(O)c1C2=O)C[C@@](O)(C(C)=O)C[C@@H]3O[C@H]1C[C@H](N)[C@H](O)[C@H](C)O1 [DNM, Daunomycin]",,,,,,IC50 (MCF-7/ADR cells [2]): 31.7 µM; [3H]-DNM efflux (P-gp): 63.0 ± 3.3%
"CC(=O)O[C@H]1C(=O)[C@@]2(C)[C@H]([C@H](OC(=O)c3ccccc3)[C@]3(O)C[C@H](OC(=O)[C@H](O)[C@@H](NC(=O)c4ccccc4)c4ccccc4)C(C)=C1C3(C)C)[C@]1(OC(C)=O)CO[C@@H]1C[C@@H]2O [PTX, Paclitaxel]",,,,,,"AB (absolute BA) of PTX ([3]; PTX 2 mg/kg IV (IV control)): 100.0%; Cl/F of PTX ([3]; PTX 2 mg/kg IV (IV control)): 614 ± 123 mL/h; Vz/F of PTX ([3]; PTX 2 mg/kg IV (IV control)): 1754 ± 419 mL; AB (absolute BA) of PTX [3, 5]: 7.1%; Cl/F of PTX [3, 5]: 8721 ± 2040 mL/h; Cmax [3, 6]: 2970 ± 428 ng/mL; AUC(0-inf) [3, 6]: 835 ± 155 ng·h/mL; k el [3, 6]: 0.000103 s⁻¹; half-life [3, 6]: 2.06 ± 0.8 h; Cmax [3, 7]: 189 ± 76 ng/mL; Tmax [3, 7]: 2 h; AUC(0-inf) [3, 7]: 745 ± 208 ng·h/mL; Vd/F ([3]; male, Sprague-Dawley, rat, plasma, PTX 25 mg/kg PO alone (oral control), read-out: Vz/F of PTX): 40.6 L; k el [3, 7]: 6.47e-05 s⁻¹; half-life [3, 7]: 3.1 ± 0.8 h; bioavailability of PTX [4]: below 10%; share of orally administered PTX excluded from the GI track by P-gp (P-glycoprotein (P-gp)): approximately 50%"
"O=C(C(c1ccccc1)c1ccc([125I])cc1)N1CCN(CC(O)COc2cccc3ncccc23)CC1 (stereo not shown) [radio-iodinated piperazine derivative, 5-[3-{4-(2-phenyl-2-(4-[125I]iodo-phenyl)acetyl)piperazin-1-yl}-2-hydroxypropoxy] quinoline]",,,,,,shortening of absorption half-life (MES-SA/Dx5): ~10 fold; shortening of mean residence time (MES-SA/Dx5): 50%
